Laboratory results: US10821115B2, “Compounds that inhibit Mcl-1 protein” (priority 2017, dated 2020)
Where two headings read alike, the source gives them in different places.

Key:
[1] = target: recombinant human Mcl-1 (residues 171-327) / Bim interaction (Homo sapiens (Human), UniProt Q07820); assay: biochemical; format: binding; details: read-out: Mcl-1 HTRF IC50
Protocol: The inhibition of the Mcl-1/Bim interaction was measured using a time-resolved fluorescence resonance energy transfer (TR-FRET) assay. […] The TR-FRET assay was conducted in a 384-well white OptiPlate™ (PerkinElmer, Waltham, Mass.) in a total volume of 40 μL. The reaction mixture contained 0.1 nM Mcl-1(171-327), 0.05 nM biotin-Bim (51-76), 0.05 nM LANCE® Eu-W1024 Anti-6×His (PerkinElmer), 0.072 nM Streptavidin-Xlent (Cisbio, Bedford, Mass.), and serially diluted test compounds in the binding buffer of 20 mM Hepes, pH 7.5, 150 mM NaCl, 0.016 mM Brij®35, and 1 mM dithiothreitol. Test compounds were pre-incubated with Mcl-1(171-327) and biotin-Bim (51-76) for 60 min before addition of the detection mixture (LANCE® Eu-W1024 Anti-6×His and Streptavidin-Xlent). The reaction plates were further incubated overnight and then were read on an Envision® multimode reader (PerkinElmer). Fluorescence signals were measured at 620 nm (40-nm bandwidth) and 665 nm (7.5-nm bandwidth) with a 60 is delay after excitation at 320 nm (75-nm bandwidth). The signal ratio at 665/620 nm corresponded to the Mcl-1/Bim interaction and was used in all data analyses. The IC50 values of test compounds were determined from duplicate data by analyzing competition curves using a four-parameter sigmoidal model in GraphPad Prism (GraphPad Software, San Diego, Calif.) or in Genedata Screener® (Genedata, Basel, Switzerland).

[2] = system: human multiple myeloma cell line, OPM-2; assay: Cell viability assay (OPM-2 10 FBS), CellTiter-Glo; format: cell-based; details: Homo sapiens, OPM-2, 16 h
Method in brief: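 Serially diluted test compounds are incubated 16 h with cells (3000/well) in RPMI 1640 supplemented with 10% FBS. Viability is then measured by luminescence and IC50 calculated by 4-parameter logistic fit.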

[3] = TR-FRET, Mcl-1(171-327) / biotin-Bim (51-76)
[4] = read-out: OPM-2 10% FBS IC50 IP, OPM-2 cells, 10% FBS, 16 h, CellTiter-Glo

Chain of recombinant human Mcl-1 (residues 171-327) / Bim interaction (Q07820 171-327): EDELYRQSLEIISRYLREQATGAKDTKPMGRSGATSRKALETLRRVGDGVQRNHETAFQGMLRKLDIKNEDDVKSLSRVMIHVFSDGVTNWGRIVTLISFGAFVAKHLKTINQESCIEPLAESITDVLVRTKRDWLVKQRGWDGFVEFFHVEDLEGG

COCCN1CCN(CCO[C@@]2(C)/C=C/C[C@H](C)[C@@H](C)S(=O)(=O)NC(=O)c3ccc4c(c3)N(C[C@@H]3CC[C@H]32)C[C@@]2(CCCc3cc(Cl)ccc32)CO4)CC1 [Example 100485, (1S,3′R,6′R,7′S,8′E,11′S,12′R)-6-chloro-7′-(2-(4-(2-methoxyethyl)-1-piperazinyl)ethoxy)-7′,11′,12′-trimethyl-3,4-dihydro-2H,15′H-spiro[naphthalene-1,22′-[20]oxa[13]thia[1,14]diazatetracyclo [14.7.2.0~3,6~.0~19,24~]pentacosa[8,16,18,24]tetraen]-15′-one 13′,13′-dioxide]
IC50 [1, 3]: 0.192 nM
IC50 [2, 4]: 272 nM

CC[C@]1(OCCN2CCOCC2)/C=C/C[C@H](C)[C@@H](C)S(=O)(=O)NC(=O)c2ccc3c(c2)N(C[C@@H]2CC[C@H]21)C[C@@]1(CCCc2cc(Cl)ccc21)CO3 (single isomer, unassigned) [Example 100481]
IC50 [1, 3]: 0.094 nM
IC50 [2, 4]: 152 nM

C[C@@H]1[C@@H](C)C[C@H]2C=CC[C@](O)(C2)[C@@H]2CC[C@H]2CN2C[C@@]3(CCCc4cc(Cl)ccc43)COc3ccc(cc32)C(=O)NS1(=O)=O [Example 100057, (1S,3′R,6′R,7′S,11′R,13′S,14′R)-6-chloro-7′-hydroxy-13′,14′-dimethyl-3,4-dihydro-2H,17′H-spiro[naphthalene-1,24′-[22]oxa[15]thia[1,16]diazapentacyclo [16.7.2.1~7,11~.0~3,6~.0~21,26~]octacosa [9,18,20,26]tetraen]-17′-one 15′,15′-dioxide]
IC50 [1, 3]: 0.568 nM
IC50 [2, 4]: 2600 nM

C[C@@H]1[C@@H](C)C/C=C/[C@](O)([C@@H](C)C(=O)OC(C)(C)C)[C@@H]2CC[C@H]2CN2C[C@@]3(CCCc4cc(Cl)ccc43)COc3ccc(cc32)C(=O)NS1(=O)=O (single isomer, unassigned) [Example 100110]
IC50 [1, 3]: 1.48 nM
IC50 [2, 4]: 686 nM

C[C@@H]1[C@@H](C)C/C=C/[C@](O)(c2ccccn2)[C@@H]2CC[C@H]2CN2C[C@@]3(CCCc4cc(Cl)ccc43)COc3ccc(cc32)C(=O)NS1(=O)=O [Example 100180, (1S,3′R,6′R,7′R,8′E,11′S,12′R)-6-chloro-7′-hydroxy-11′,12′-dimethyl-7′-(2-pyridinyl)-3,4-dihydro-2H,15′H-spiro[naphthalene-1,22′-[20]oxa[13]thia[1,14]diazatetracyclo [14.7.2.0~3,6~.0~19,24~]pentacosa[8,16,18,24]tetraen]-15′-one 13′,13′-dioxide]
IC50 [1, 3]: 4.92 nM
IC50 [2, 4]: 4420 nM

CO[C@@]1(CN2CC(N3CCOCC3)C2)/C=C/C[C@H](C)[C@@H](C)S(=O)(=O)NC(=O)c2ccc3c(c2)N(C[C@@H]2CC[C@H]21)C[C@@]1(CCCc2cc(Cl)ccc21)CO3 [Example 258, (1S,3′R,6′R,7′S,8′E,11′S,12′R)-6-chloro-7′-methoxy-11′,12′-dimethyl-7′-((3-(4-morpholinyl)-1-azetidinyl)methyl)-3,4-dihydro-2H,15′H-spiro[naphthalene-1,22′-[20]oxa[13]thia[1,14]diazatetracyclo [14.7.2.0~3,6~.0~19,24~]pentacosa[8,16,18,24]tetraen]-15′-one 13′,13′-dioxide]
IC50 ([1]; 0.1 nM Mcl-1(171-327), 0.05 nM biotin-Bim (51-76)): 0.069 nM
IC50 ([2]; read-out: OPM-2 10% FBS IC50 IP, OPM-2 cells, 10% FBS, 16 h incubation): 95 nM

C#C[C@@]1(OC)/C=C/C[C@H](C)[C@@H](C)S(=O)(=O)NC(=O)c2ccc3c(c2)N(C[C@@H]2CC[C@H]21)C[C@@]1(CCCc2cc(Cl)ccc21)CO3 [Example 100503, (1S,3′R,6′R,7′R,8′E,11′S,12′R)-6-chloro-7′-ethynyl-7′-methoxy-11′,12′-dimethyl-3,4-dihydro-2H,15′H-spiro[naphthalene-1,22′-[20]oxa[13]thia[1,14]diazatetracyclo [14.7.2.0~3,6~.0~19,24~]pentacosa[8,16,18,24]tetraen]-15′-one 13′,13′-dioxide]
IC50 [1, 3]: 0.493 nM
IC50 [2, 4]: 706 nM
